Laboratory results as given in the supplement of paper PMC10307832.

Key:
Assay in all cases: relative viability (nuclei count vs DMSO), 5 days (fraction); higher = more cells survive
201T = tested on: 201T
In short: (§1)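 Lung cancer cell lines were seeded in 1536-well plates and dosed by pin tool the next day, with either a single drug or a fixed anchor-drug dose combined with five library-drug doses (not always all listed) spaced in √10 steps. Five days later, one step fixed the cells and stained their nuclei (final 0.05% Triton X-100, 1% formaldehyde, 1 ug/ml Hoechst), and nuclei were counted on 4× images. Relative viability is the nuclei count in treated wells divided by the count in vehicle wells, and each value is the median of duplicate plates.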

A-427 = tested on: A-427
In short: as §1

BEN = tested on: BEN
In short: as §1

COR-L23 = tested on: COR-L23
In short: as §1

EKVX = tested on: EKVX
In short: as §1

EMC-BAC-2 = tested on: EMC-BAC-2
In short: as §1

EPLC-272H = tested on: EPLC-272H
In short: as §1

HCC-44 = tested on: HCC-44
In short: as §1

HCC-827 = tested on: HCC-827
In short: as §1

LCLC-103H = tested on: LCLC-103H
In short: as §1

LK-2 = tested on: LK-2
In short: as §1

LXF-289 = tested on: LXF-289
In short: as §1

NCI-H1650 = tested on: NCI-H1650
In short: as §1

NCI-H1651 = tested on: NCI-H1651
In short: as §1

NCI-H1793 = tested on: NCI-H1793
In short: as §1

NCI-H1915 = tested on: NCI-H1915
In short: as §1

NCI-H2087 = tested on: NCI-H2087
In short: as §1

NCI-H2126 = tested on: NCI-H2126
In short: as §1

NCI-H2347 = tested on: NCI-H2347
In short: as §1

NCI-H358 = tested on: NCI-H358
In short: as §1

NCI-H460 = tested on: NCI-H460
In short: as §1

NCI-H596 = tested on: NCI-H596
In short: as §1

SW 1573 = tested on: SW 1573
In short: as §1

Molecule `O=c1[nH]c2ccccc2n1C1CCN(CCCC(c2ccc(F)cc2)c2ccc(F)cc2)CC1` [Pimozide] + CC(=O)Nc1cccc(-n2c(=O)n(C3CC3)c(=O)c3c(Nc4ccc(I)cc4F)n(C)c(=O)c(C)c32)c1 [Trametinib] (partner 0.02 µM) has a relative viability (201T; first compound 0.08 µM) of 0.717, a relative viability (201T; first compound 0.253 µM) of 0.726 and a relative viability (201T; first compound 0.8 µM) of 0.7. It also gave a relative viability (201T; first compound 2.53 µM) of 0.732, a relative viability (201T; first compound 8 µM) of 0.686 and a relative viability (A-427; first compound 0.08 µM) of 0.771. It also gave a relative viability (A-427; first compound 0.253 µM) of 0.75, a relative viability (A-427; first compound 0.8 µM) of 0.701 and a relative viability (A-427; first compound 2.53 µM) of 0.682. The relative viability (A-427; first compound 8 µM) was 0.68, the relative viability (BEN; first compound 0.08 µM) was 1.17 and the relative viability (BEN; first compound 0.253 µM) was 1.16. The relative viability (BEN; first compound 0.8 µM) was 1.01, the relative viability (BEN; first compound 2.53 µM) was 0.984 and the relative viability (BEN; first compound 8 µM) was 1.29. For the same molecule, the relative viability (COR-L23; first compound 0.08 µM) was 0.541, the relative viability (COR-L23; first compound 0.253 µM) was 0.596 and the relative viability (COR-L23; first compound 0.8 µM) was 0.602. For the same molecule, the relative viability (COR-L23; first compound 2.53 µM) was 0.629, the relative viability (COR-L23; first compound 8 µM) was 0.478 and the relative viability (EKVX; first compound 0.253 µM) was 0.294. For the same molecule, the relative viability (EKVX; first compound 0.8 µM) was 0.31, the relative viability (EKVX; first compound 2.53 µM) was 0.344 and the relative viability (EKVX; first compound 8 µM) was 0.326. For the same molecule, the relative viability (EMC-BAC-2; first compound 0.08 µM) was 0.814, the relative viability (EMC-BAC-2; first compound 0.253 µM) was 0.891 and the relative viability (EMC-BAC-2; first compound 0.8 µM) was 0.792. For the same molecule, the relative viability (EMC-BAC-2; first compound 2.53 µM) was 0.815, the relative viability (EMC-BAC-2; first compound 8 µM) was 0.802 and the relative viability (EPLC-272H; first compound 0.08 µM) was 0.282. It also gave a relative viability (EPLC-272H; first compound 0.253 µM) of 0.26, a relative viability (EPLC-272H; first compound 0.8 µM) of 0.27 and a relative viability (EPLC-272H; first compound 2.53 µM) of 0.263. It also gave a relative viability (EPLC-272H; first compound 8 µM) of 0.233, a relative viability (HCC-44; first compound 0.08 µM) of 1.1 and a relative viability (HCC-44; first compound 0.253 µM) of 1.18. It also gave a relative viability (HCC-44; first compound 0.8 µM) of 0.913, a relative viability (HCC-44; first compound 2.53 µM) of 0.979 and a relative viability (HCC-44; first compound 8 µM) of 0.887. The relative viability (HCC-827; first compound 0.253 µM) was 0.538, the relative viability (HCC-827; first compound 0.8 µM) was 0.556 and the relative viability (HCC-827; first compound 2.53 µM) was 0.532. The relative viability (HCC-827; first compound 8 µM) was 0.561, the relative viability (LCLC-103H; first compound 0.08 µM) was 0.676 and the relative viability (LCLC-103H; first compound 0.253 µM) was 0.656. For the same molecule, the relative viability (LCLC-103H; first compound 0.8 µM) was 0.642, the relative viability (LCLC-103H; first compound 2.53 µM) was 0.631 and the relative viability (LCLC-103H; first compound 8 µM) was 0.669. The relative viability (LK-2; first compound 0.08 µM) was 0.717, the relative viability (LK-2; first compound 0.253 µM) was 0.826 and the relative viability (LK-2; first compound 0.8 µM) was 0.749. For the same molecule, the relative viability (LK-2; first compound 2.53 µM) was 0.492, the relative viability (LK-2; first compound 8 µM) was 0.727 and the relative viability (LXF-289; first compound 0.08 µM) was 0.623. It also gave a relative viability (LXF-289; first compound 0.253 µM) of 0.67, a relative viability (LXF-289; first compound 0.8 µM) of 0.627 and a relative viability (LXF-289; first compound 2.53 µM) of 0.687. For the same molecule, the relative viability (LXF-289; first compound 8 µM) was 0.674, the relative viability (NCI-H1650; first compound 0.08 µM) was 0.625 and the relative viability (NCI-H1650; first compound 0.253 µM) was 0.591. It also gave a relative viability (NCI-H1650; first compound 0.8 µM) of 0.516, a relative viability (NCI-H1650; first compound 2.53 µM) of 0.571 and a relative viability (NCI-H1650; first compound 8 µM) of 0.718. The relative viability (NCI-H1651; first compound 0.08 µM) was 0.833, the relative viability (NCI-H1651; first compound 0.253 µM) was 0.79 and the relative viability (NCI-H1651; first compound 0.8 µM) was 0.829. For the same molecule, the relative viability (NCI-H1651; first compound 2.53 µM) was 0.82, the relative viability (NCI-H1651; first compound 8 µM) was 0.853 and the relative viability (NCI-H1793; first compound 0.08 µM) was 0.478. For the same molecule, the relative viability (NCI-H1793; first compound 0.253 µM) was 0.391, the relative viability (NCI-H1793; first compound 0.8 µM) was 0.391 and the relative viability (NCI-H1793; first compound 2.53 µM) was 0.44. It also gave a relative viability (NCI-H1793; first compound 8 µM) of 0.515, a relative viability (NCI-H1915; first compound 0.08 µM) of 0.293 and a relative viability (NCI-H1915; first compound 0.253 µM) of 0.296. The relative viability (NCI-H1915; first compound 2.53 µM) was 0.296, the relative viability (NCI-H1915; first compound 8 µM) was 0.287 and the relative viability (NCI-H2087; first compound 0.08 µM) was 0.243. For the same molecule, the relative viability (NCI-H2087; first compound 0.253 µM) was 0.24, the relative viability (NCI-H2087; first compound 2.53 µM) was 0.179 and the relative viability (NCI-H2087; first compound 8 µM) was 0.205. The relative viability (NCI-H2126; first compound 0.08 µM) was 0.589, the relative viability (NCI-H2126; first compound 0.253 µM) was 0.584 and the relative viability (NCI-H2126; first compound 0.8 µM) was 0.566. It also gave a relative viability (NCI-H2126; first compound 2.53 µM) of 0.592, a relative viability (NCI-H2126; first compound 8 µM) of 0.533 and a relative viability (NCI-H2347; first compound 0.08 µM) of 0.288. It also gave a relative viability (NCI-H2347; first compound 0.253 µM) of 0.307, a relative viability (NCI-H2347; first compound 0.8 µM) of 0.287 and a relative viability (NCI-H2347; first compound 2.53 µM) of 0.278. The relative viability (NCI-H2347; first compound 8 µM) was 0.285, the relative viability (NCI-H358; first compound 0.08 µM) was 0.135 and the relative viability (NCI-H358; first compound 0.253 µM) was 0.147. The relative viability (NCI-H358; first compound 0.8 µM) was 0.137, the relative viability (NCI-H358; first compound 2.53 µM) was 0.13 and the relative viability (NCI-H358; first compound 8 µM) was 0.126. The relative viability (NCI-H460; first compound 0.08 µM) was 0.239, the relative viability (NCI-H460; first compound 0.253 µM) was 0.0857 and the relative viability (NCI-H460; first compound 0.8 µM) was 0.131. It also gave a relative viability (NCI-H460; first compound 2.53 µM) of 0.185, a relative viability (NCI-H460; first compound 8 µM) of 0.14 and a relative viability (NCI-H596; first compound 0.08 µM) of 0.83. The relative viability (NCI-H596; first compound 0.253 µM) was 0.763, the relative viability (NCI-H596; first compound 0.8 µM) was 0.738 and the relative viability (NCI-H596; first compound 2.53 µM) was 0.736. It also gave a relative viability (NCI-H596; first compound 8 µM) of 0.772, a relative viability (SW 1573; first compound 0.08 µM) of 0.645 and a relative viability (SW 1573; first compound 0.253 µM) of 0.448. The relative viability (SW 1573; first compound 0.8 µM) was 0.394, the relative viability (SW 1573; first compound 2.53 µM) was 0.308 and the relative viability (SW 1573; first compound 8 µM) was 0.344.
